# Laboratory results: PubChem BioAssay AID504473 (NMMLSC, 2011)
# The source made the active and inactive calls.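 How the source made its calls: active means GFP ratio to DMSO above 1.5 or below 0.66; inactive means the rest.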
# Tests used:
# Test in all cases: expression changes of rapamycin-responsive GFP fusion proteins, S. cerevisiae, GFP-tagged clone panel, flow cytometry (AID 504473);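 further: median GFP fluorescence of the cells measured by high-throughput flow cytometry; test concentration not given here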
# Settings in all cases: S. cerevisiae GFP-tagged strains, 3 h
# [1] = system: YJL144W
# [2] = system: YJR148W
# [3] = system: YKL086W
# [4] = system: YKL103C
# [5] = system: YKL119C
# [6] = system: YKR039W
# [7] = system: YKR093W
# [8] = system: YKR094C
# [9] = system: YLL026W
# [10] = system: YLL039C
# [11] = system: YLR058C
# [12] = system: YLR109W
# [13] = system: YLR142W
# [14] = system: YLR185W
# [15] = system: YLR237W
# [16] = system: YLR287C-A
# [17] = system: YLR367W
# [18] = system: YML004C
# [19] = system: YML026C
# [20] = system: YML034W
# [21] = system: YML063W
# [22] = system: YML128C
# [23] = system: YMR105C
# [24] = system: YMR120C
# [25] = system: YMR251W-A
# [26] = system: YMR307W
# [27] = system: YNL015W
# [28] = system: YNL068C
# [29] = system: YNL112W
# [30] = system: YNL142W
# [31] = system: YNL214W
# [32] = system: YNR001C
# [33] = system: YOL052C-A
# [34] = system: YOR038C
# [35] = system: YOR063W
# [36] = system: YOR136W
# [37] = system: YOR173W
# [38] = system: YOR182C
# [39] = system: YOR371C
# [40] = system: YOR375C
# [41] = system: YPL111W
# [42] = system: YPL131W
# [43] = system: YPL150W
# [44] = system: YPL220W
# [45] = system: YPL265W
# [46] = system: YPR132W
# [47] = system: YPR145W
# [48] = system: YPR184W
smiles,measurement,setting,value
CNc1nc(N)c([N+](=O)[O-])c(Nc2cccc(Cl)c2)n1,GFP ratio to DMSO,[1],0.983 (inactive)
same,GFP ratio to DMSO,[2],1.71
same,GFP ratio to DMSO,[3],0.896 (inactive)
same,GFP ratio to DMSO,[4],1.21 (inactive)
same,GFP ratio to DMSO,[5],0.951 (inactive)
same,GFP ratio to DMSO,[6],1.35 (inactive)
same,GFP ratio to DMSO,[7],1.61
same,GFP ratio to DMSO,[8],1.06 (inactive)
same,GFP ratio to DMSO,[9],1.07 (inactive)
same,GFP ratio to DMSO,[10],0.725 (inactive)
same,GFP ratio to DMSO,[11],0.859 (inactive)
same,GFP ratio to DMSO,[12],1.3 (inactive)
same,GFP ratio to DMSO,[13],0.835 (inactive)
same,GFP ratio to DMSO,[14],1.04 (inactive)
same,GFP ratio to DMSO,[15],0.77 (inactive)
same,GFP ratio to DMSO,[16],1.04 (inactive)
same,GFP ratio to DMSO,[17],1.01 (inactive)
same,GFP ratio to DMSO,[18],0.875 (inactive)
same,GFP ratio to DMSO,[19],0.93 (inactive)
same,GFP ratio to DMSO,[20],0.842 (inactive)
same,GFP ratio to DMSO,[21],1.04 (inactive)
same,GFP ratio to DMSO,[22],0.923 (inactive)
same,GFP ratio to DMSO,[23],1.17 (inactive)
same,GFP ratio to DMSO,[24],0.553
same,GFP ratio to DMSO,[25],1.01 (inactive)
same,GFP ratio to DMSO,[26],0.996 (inactive)
same,GFP ratio to DMSO,[27],0.947 (inactive)
same,GFP ratio to DMSO,[28],0.946 (inactive)
same,GFP ratio to DMSO,[29],1.07 (inactive)
same,GFP ratio to DMSO,[30],1.32 (inactive)
same,GFP ratio to DMSO,[31],0.938 (inactive)
same,GFP ratio to DMSO,[32],1.17 (inactive)
same,GFP ratio to DMSO,[33],1.17 (inactive)
same,GFP ratio to DMSO,[34],0.974 (inactive)
same,GFP ratio to DMSO,[35],1.1 (inactive)
same,GFP ratio to DMSO,[36],1.19 (inactive)
same,GFP ratio to DMSO,[37],0.891 (inactive)
same,GFP ratio to DMSO,[38],1.02 (inactive)
same,GFP ratio to DMSO,[39],0.826 (inactive)
same,GFP ratio to DMSO,[40],1.17 (inactive)
same,GFP ratio to DMSO,[41],1.25 (inactive)
same,GFP ratio to DMSO,[42],1.09 (inactive)
same,GFP ratio to DMSO,[43],0.863 (inactive)
same,GFP ratio to DMSO,[44],1.07 (inactive)
same,GFP ratio to DMSO,[45],1.62
same,GFP ratio to DMSO,[46],1.13 (inactive)
same,GFP ratio to DMSO,[47],1.32 (inactive)
same,GFP ratio to DMSO,[48],0.958 (inactive)
